Results as given in patent US20100113465A1, “7-AZASPIRO[3.5]NONANE-7-CARBOXAMIDE COMPOUNDS” (Pfizer Inc., priority 2008, published 2010).

What was measured:
[1] = biological target: T1, human FAAH (Homo sapiens, UniProt O00519); test: FAAH assay, human FAAH enzyme inhibition (kinact/Ki); type: biochemical; settings: oleamide substrate 50 μM, 30° C.; for kinact/KI: read-out: hFAAH kinact/Ki
T1 construct: made in house; host or cells: E. coli
T1 sequence (O00519 1-579): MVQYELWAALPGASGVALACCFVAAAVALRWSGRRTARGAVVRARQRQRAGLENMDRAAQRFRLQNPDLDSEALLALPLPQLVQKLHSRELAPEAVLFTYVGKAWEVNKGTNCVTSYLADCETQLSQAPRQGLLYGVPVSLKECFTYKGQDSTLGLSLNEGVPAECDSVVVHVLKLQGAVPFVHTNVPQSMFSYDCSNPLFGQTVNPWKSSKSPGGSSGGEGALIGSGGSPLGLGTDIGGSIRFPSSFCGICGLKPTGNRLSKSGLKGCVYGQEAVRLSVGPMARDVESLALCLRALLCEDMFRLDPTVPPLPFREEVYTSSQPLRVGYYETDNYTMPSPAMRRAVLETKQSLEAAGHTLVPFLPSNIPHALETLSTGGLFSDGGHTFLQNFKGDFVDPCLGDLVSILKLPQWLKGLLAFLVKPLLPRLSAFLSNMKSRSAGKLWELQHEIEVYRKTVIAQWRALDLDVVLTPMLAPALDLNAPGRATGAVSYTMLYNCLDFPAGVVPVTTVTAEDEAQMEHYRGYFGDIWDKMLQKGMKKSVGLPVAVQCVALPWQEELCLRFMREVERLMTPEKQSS
Description: (§1) The FAAH assay was carried out in 384-well clear polystyrene plates (Evergreen Scientific) in a total volume of 50 μl per well in a manner similar to that described by Mileni et al., Proc. Nat. Acad. Sci. 2008, 105, 12820-12824. All percents are by volume. Serial dilutions of compound were initially prepared in 100% DMSO, and then diluted two-fold into HPLC-grade H2O to give 50% DMSO. To each well, was placed the reaction mixture (40 μl) containing 1-4 nM FAAH, 50 mM NaPi, pH 7.4, 3 mM α-ketoglutarate, 0.15 mM NADH, 7.5 U/ml glutamate dehydrogenase, 2 mM ADP, 1 mM EDTA, and 0.1% Triton X-100 (The concentration shown for each component is the final concentration in the assay). To this mixture, was added 5 μl of a compound of Examples 1 to 56 at various concentrations in 50% DMSO (or 5 μl 50% DMSO for controls). This was immediately followed by the addition of 5 μl oleamide (500 μM) dissolved in 75% EtOH/25% DMSO and the reaction mixture was mixed for 1.5 min. The final concentrations of DMSO and EtOH in the assay were each 7.5%. The reactions were incubated at 30° C. and the absorbance at 340 nm was collected over a period of 90 min with readings taken in 30-second intervals using SpectraMax Plus^384 Microplate Spectrophotometer (Molecular Devices, Sunnyvale, Calif.). The human FAAH and rat FAAH used in the assay was prepared as described in the patent application WO 2006/067613 using wild-type E. coli cells transformed in St. Louis, Mo., U.S.A. The purity of the enzyme was greater than 98% based on an analysis by SDS-polyacrylamide gel electrophoresis followed by Coomassie Blue staining.
(§2) Reaction progress curves were corrected for the non-enzymatic oxidation of NADH by subtraction of absorbancies at each time point obtained from control reactions containing no FAAH enzyme. The loss of enzyme activity as a function of time is well-described by the following mathematical equation (1) for a mono-exponential decay: […]
(§3) where At represents the absorbance at time t, A0 represents the absorbance at time zero, and C represents a constant. Observed rates of enzyme inactivation (kobs) were determined from the non-linear reaction progress curves by fitting the corrected absorbancies to an equation for a mono-exponential decay using the third-party Microsoft Excel plug-in, XLfit (IDBS Limited). Secondary plots of kobs vs. inhibitor concentration were prepared from kobs values obtained from progress curves. Second-order rates for enzyme inactivation, expressed as kinact/Ki (M^−1s^−1), were calculated from the slopes from linear regression analysis of the secondary plot of kobs vs. inhibitor concentration as defined in following equation (2), where [I]<<Ki:
(§4) The concentration of substrate in the assay was equal to the Km for oleamide of 50 μM. Therefore, reported kinact/Ki values are obtained by multiplying resulting slopes by a factor of two (i.e. slope=kinact/(Ki*2)).

[2] = biological target: T2, rat FAAH (Rattus norvegicus, UniProt P97612); test: FAAH assay, rat FAAH enzyme inhibition (kinact/Ki); type: biochemical; settings: oleamide substrate 50 μM, 30° C.; for kinact/KI: read-out: rFAAH kinact/Ki
T2 construct: made in house; host or cells: E. coli
T2 sequence (P97612 1-579): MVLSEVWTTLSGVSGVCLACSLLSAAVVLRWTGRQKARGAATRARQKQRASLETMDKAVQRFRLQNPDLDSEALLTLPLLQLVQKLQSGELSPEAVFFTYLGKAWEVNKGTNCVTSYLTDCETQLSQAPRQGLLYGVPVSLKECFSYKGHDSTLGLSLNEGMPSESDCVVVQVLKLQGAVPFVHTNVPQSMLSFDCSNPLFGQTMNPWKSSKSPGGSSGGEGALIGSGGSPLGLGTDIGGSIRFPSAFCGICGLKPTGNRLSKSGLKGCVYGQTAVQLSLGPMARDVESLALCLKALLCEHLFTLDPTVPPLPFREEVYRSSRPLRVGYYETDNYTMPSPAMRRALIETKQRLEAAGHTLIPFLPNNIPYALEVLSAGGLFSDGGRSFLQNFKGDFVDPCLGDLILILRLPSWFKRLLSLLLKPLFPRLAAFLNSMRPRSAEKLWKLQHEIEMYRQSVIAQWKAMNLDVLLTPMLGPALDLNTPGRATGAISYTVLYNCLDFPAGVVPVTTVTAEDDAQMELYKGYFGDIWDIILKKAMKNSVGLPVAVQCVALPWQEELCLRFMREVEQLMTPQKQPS
Description: as §1, §2, §3, §4

Row | Structure (SMILES) | kinact/KI [1] [M⁻¹ s⁻¹] | kinact/KI [2] [M⁻¹ s⁻¹] | hFAAH kinact/Ki [1] [M⁻¹ s⁻¹] | rFAAH kinact/Ki [2] [M⁻¹ s⁻¹]
1 | Cc1noc(NC(=O)N2CCC3(CC2)CC(c2nc(-c4ccc(OC(F)(F)F)cc4)cs2)C3)c1C [Example 38, N-(3,4-dimethylisoxazol-5-yl)-2-{4-[4-(trifluoromethoxy)phenyl]-1,3-thiazol-2-yl}-7-azaspiro[3.5]nonane-7-carboxamide] | 3720 | 756 | – | –
2 | Cc1noc(NC(=O)N2CCC3(CC(c4ccc(F)c(Cl)c4)C3)C(C)C2)c1C (centres unmarked) [Example 42, 2-(3-chloro-4-fluorophenyl)-N-(3,4-dimethylisoxazol-5-yl)-5-methyl-7-azaspiro[3.5]nonane-7-carboxamide] | 991 | 1360 | – | –
3 | Cc1noc(NC(=O)N2CCC3(CC(c4ccc(F)c(Cl)c4)C3)C(C)C2)c1C (single isomer, unassigned) [Example 42b, 2-(3-chloro-4-fluorophenyl)-N-(3,4-dimethylisoxazol-5-yl)-5-methyl-7-azaspiro[3.5]nonane-7-carboxamide] | – | – | 37.1 | 49.4
4 | Cc1noc(NC(=O)N2CCC3(CC2)CC(c2cccc(Oc4ccc(Br)cn4)c2)C3)c1C [Example 11, 2-{3-[(5-bromopyridin-2-yl)oxy]phenyl}-N-(3,4-dimethylisoxazol-5-yl)-7-azaspiro[3.5]nonane-7-carboxamide] | 2340 | 9990 | – | –
5 | Cc1cccc(C2CC3(CCN(C(=O)Nc4nnc(-c5ccccc5)nn4)CC3)C2)c1 [Example 17, 2-(3-methylphenyl)-N-(6-phenyl-1,2,4,5-tetrazin-3-yl)-7-azaspiro[3.5]nonane-7-carboxamide] | 2460 | 3940 | – | –
6 | Cc1nnc(NC(=O)N2CCC3(CC2)CC(c2cccc(OC(F)(F)F)c2)C3)o1 [Example 35, N-(5-methyl-1,3,4-oxadiazol-2-yl)-2-[3-(trifluoromethoxy)phenyl]-7-azaspiro[3.5]nonane-7-carboxamide] | 1530 | 2460 | – | –
7 | O=C(Nc1nnc(-c2cccc(Cl)c2)o1)N1CCC2(CC1)CC(c1cccc(OC(F)(F)F)c1)C2 [Example 51, N-[5-(3-chlorophenyl)-1,3,4-oxadiazol-2-yl]-2-[3-(trifluoromethoxy)phenyl]-7-azaspiro[3.5]nonane-7-carboxamide] | 2520 | 5460 | – | –
8 | Cn1nnnc1NC(=O)N1CCC2(CC1)CC(c1cccc(F)c1F)C2 [Example 56, 2-(2,3-difluorophenyl)-N-(1-methyl-1H-tetrazol-5-yl)-7-azaspiro[3.5]nonane-7-carboxamide] | 10300 | 1940 | – | –
9 | COC1(c2ccc(F)c(Cl)c2)CC2(CCN(C(=O)Nc3onc(C)c3C)CC2)C1 [Example 43, 2-(3-chloro-4-fluorophenyl)-N-(3,4-dimethylisoxazol-5-yl)-2-methoxy-7-azaspiro[3.5]nonane-7-carboxamide] | 494 | 247 | – | –

Other lines, results leading:

Row | kinact/KI [1] [M⁻¹ s⁻¹] | kinact/KI [2] [M⁻¹ s⁻¹] | hFAAH kinact/Ki [1] [M⁻¹ s⁻¹] | rFAAH kinact/Ki [2] [M⁻¹ s⁻¹] | Structure (SMILES)
10 | 10200 | 2040 | – | – | Cn1nnnc1NC(=O)N1CCC2(CC1)CC(c1cccc3c1OC(F)(F)O3)C2 [Example 55, 2-(2,2-difluoro-1,3-benzodioxol-4-yl)-N-(1-methyl-1H-tetrazol-5-yl)-7-azaspiro[3.5]nonane-7-carboxamide]
11 | 3050 | 1540 | – | – | Cc1noc(NC(=O)N2CCC3(CC2)CC(c2ccc(OCc4ccc(F)cc4)cc2)C3)c1C [Example 40, N-(3,4-dimethylisoxazol-5-yl)-2-{4-[(4-fluorobenzyl)oxy]phenyl}-7-azaspiro[3.5]nonane-7-carboxamide]
12 | 1900 | 1980 | – | – | Cc1noc(NC(=O)N2CCC3(CC2)CC(c2csc(-c4cccc(F)c4)n2)C3)c1C [Example 37, N-(3,4-dimethylisoxazol-5-yl)-2-[2-(3-fluorophenyl)-1,3-thiazol-4-yl]-7-azaspiro[3.5]nonane-7-carboxamide]
13 | 945 | 1340 | – | – | Cc1noc(NC(=O)N2CCC3(CC2)CC(O)(c2ccc(F)c(Cl)c2)C3)c1C [Example 44, 2-(3-chloro-4-fluorophenyl)-N-(3,4-dimethylisoxazol-5-yl)-2-hydroxy-7-azaspiro[3.5]nonane-7-carboxamide]
14 | – | – | 1550 | 3040 | Cc1noc(NC(=O)N2CCC3(CC(c4ccc(F)c(Cl)c4)C3)C(C)C2)c1C (single isomer, unassigned) [Example 42a, 2-(3-chloro-4-fluorophenyl)-N-(3,4-dimethylisoxazol-5-yl)-5-methyl-7-azaspiro[3.5]nonane-7-carboxamide]
15 | 2670 | 4120 | – | – | Cc1noc(NC(=O)N2CCC3(CC2)CC(c2ccc(Cl)c(F)c2)C3)c1C [Example 39, 2-(4-chloro-3-fluorophenyl)-N-(3,4-dimethylisoxazol-5-yl)-7-azaspiro[3.5]nonane-7-carboxamide]
16 | – | – | 2760 | 3530 | Cc1noc(NC(=O)N2CCC3(CC(c4ccc(F)c(Cl)c4)C3)C(C)C2)c1C (single isomer, unassigned) [Example 42c, 2-(3-chloro-4-fluorophenyl)-N-(3,4-dimethylisoxazol-5-yl)-5-methyl-7-azaspiro[3.5]nonane-7-carboxamide]
17 | 1100 | 656 | – | – | Cc1noc(NC(=O)N2CCC3(CC2)CC(c2cccc(-c4cccc(F)c4)c2)C3)c1C [Example 31, N-(3,4-dimethylisoxazol-5-yl)-2-(3′-fluorobiphenyl-3-yl)-7-azaspiro[3.5]nonane-7-carboxamide]
18 | 9660 | 3200 | – | – | Cc1cccc(C2CC3(CCN(C(=O)Nc4nnnn4C)CC3)C2)c1 [Example 16, 2-(3-methylphenyl)-N-(1-methyl-1H-tetrazol-5-yl)-7-azaspiro[3.5]nonane-7-carboxamide]
19 | – | – | 1100 | 860 | Cc1noc(NC(=O)N2CCC3(CC(c4ccc(F)c(Cl)c4)C3)C(C)C2)c1C (single isomer, unassigned) [Example 42d, 2-(3-chloro-4-fluorophenyl)-N-(3,4-dimethylisoxazol-5-yl)-5-methyl-7-azaspiro[3.5]nonane-7-carboxamide]
